Experimental data published in patent US20090042988A1, “PHARMACEUTICAL COMPOSITIONS CONTAINING A MEGLITINIDE COMPOUND FOR PREVENTING HEPATIC FIBROSIS” (KURUME UNIVERSITY, priority 2006, published 2009).
Where “and” joins values, the source holds several entries; their conditions need not be identical. Identical values can stand only once. Entries after “also recorded” stand apart in the source; their conditions may differ.

Experiments:
liver biopsy tissues [1] = experiment: Histological scoring of liver biopsy tissues (Brunt's scale) in NASH patients with diabetes given nateglinide;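 also: patients dosed orally with 90 mg thrice daily ahead of meals over 16 weeks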
Experimental: Meanwhile, the degree of hepatic fibrosis herein mentioned is evaluated by the steps comprising of treating the tissue section of liver biopsy samples with the method of specifically staining the fibrillary element such as Masson's trichrome stain, Sweet's reticulin stain or Azan stain; and then determining the quantity thereof per distinctive fibrosis images or evaluating them as stages. As one example, since hepatocellular necrosis or degeneration in NASH often occurs in areas of zone 3, the portal fibrosis is evaluated corresponding to the degree thereof on a scale of 0 to 4 when pericellular fibrosis, perivenular fibrosis or pathology of the region corresponding to the areas of zone 3 is advanced. Further, the degree is comprehensively classified as: Stage 1: perivascular/perisinusoidal/pericellular fibrosis partially or widely exists centering on zone 3; Stage 2: portal fibrosis partially or widely exists in addition to Stage 1; Stage 3: bridging fibrosis partially or widely exists; and Stage 4: cirrhosis.
Hepatocellular degeneration is determined as ballooning of hepatocytes after treating the section of liver biopsy tissues with hematoxylin-eosin staining. Hepatocellular degeneration is evaluated based on the number of the cells observed in the visual field (Non-patent Literature 11).

[2] = twelve-week administration; 53 fatty liver cases with diabetes or 5 cases where GPT>GOT; cited from earlier work
ATP-citrate lyase = conditions: nateglinide administered before glucose load; diabetic model animal; cited from earlier work
fatty liver = experiment: Degree of fatty liver by liver/spleen ratio of CT in NASH patients with diabetes given nateglinide; format: in vivo
From the text: 5 patients were selected as the subjects, who had clinical features of fatty liver found by the abdominal ultrasound or the abdominal CT, had negative test results in various virus markers and autoantibody, could deny a drinking history or a drug history; were diagnosed as NASH by a liver biopsy based on Brunt's scale (Am J Gastroenterol. 1999 94: 2467-2474), and had diabetes on which diet and exercise therapies could not sufficiently produce the therapeutic effect. […] Am J Gastroenterol. 1999 94: 2467-2474).

liver biopsy tissues [3] = conditions: 16 weeks, 5 patients with diabetes diagnosed as NASH (Non-patent Literature 10); cited from earlier work
[4] = Diabetic indexes (HbA1c, fasting blood glucose, blood glucose 2 hours after glucose tolerance test) in NASH patients with diabetes given nateglinide; format: in vivo; conditions: per patient, Case 1-5
Experimental: In 0th week and 12th week or 16 week, as the diabetic indexes, the fasting blood glucose, the blood glucose 2 hours after the glucose tolerance test, and hemoglobin A1c, as the evaluation of the liver, the degree of fatty liver determined by liver/spleen ratio of CT and liver biopsy tissues for each case were histologically analyzed to score hepatocellular degeneration, pericellular fibrosis, perivenular fibrosis, portal fibrosis or the like (Brunt E M et al. Am J Gastroenterol. 1999 94: 2467-2474).

[5] = after nateglinide administration, Brunt score, per patient, Case 1-5
[6] = after nateglinide administration, score, per patient, Case 1-5
[7] = Δ: value before admin. − value after admin., per patient, Case 1-5
[8] = after nateglinide 90 mg orally three times per day (12th or 16th week)
[9] = Δ: value before admin. − value after admin., 0th and 12th weeks

CC(C)[C@H]1CC[C@H](C(=O)N[C@H](Cc2ccccc2)C(=O)O)CC1 [nateglinide, (−)-N-(trans-4-isopropylcyclohexanecarbonyl)-D-phenylalanine]
grade (liver biopsy tissues [1]; [5]): 1 (2×) and 2 (2×) and 1.5
stage (liver biopsy tissues [1]; [5]): 2 (2×) and 1 (2×) and 1.5
hepatocellular degeneration (liver biopsy tissues [1]; [6]): 1 (4×) and 2
pericellular fibrosis (liver biopsy tissues [1]; [6]): 1 (4×) and 0
perivenular fibrosis (liver biopsy tissues [1]; [6]): 1 (4×) and 2
portal area neutrophil infiltration (liver biopsy tissues [1]; [6]): 0 (3×) and 1 (2×)
portal fibrosis (liver biopsy tissues [1]; [6]): 2 (2×) and 1 and 1.5 and 0.5
portal vein inflammation (liver biopsy tissues [1]; [6]): 0 (4×) and 1
improvement of fatty liver, hepatocellular degeneration, pericellular fibrosis, perivenular fibrosis or portal fibrosis (liver biopsy tissues [1]; cases whose diabetic indexes were improved by nateglinide): improvements were also observed
improvement of hepatocellular degeneration, pericellular fibrosis, perivenular fibrosis or portal fibrosis (liver biopsy tissues [1]; cases whose diabetic indexes were not improved (Cases 1 and 3)): hepatic inflammation, degeneration or fibrosis thereof was improved; also recorded: almost the same improvements were observed
Δ grade (liver biopsy tissues [1]; [7]): 1 (3×) and 0.5 and 0
Δ hepatocellular degeneration (liver biopsy tissues [1]; [7]): 1 (3×) and 0 and 2
Δ pericellular fibrosis (liver biopsy tissues [1]; [7]): 2 (2×) and 1 (3×)
Δ perivenular fibrosis (liver biopsy tissues [1]; [7]): 1
Δ portal area neutrophil infiltration (liver biopsy tissues [1]; [7]): 0 (3×) and 1 (2×)
Δ portal fibrosis (liver biopsy tissues [1]; [7]): 1 (2×) and 0.5 (2×) and 0
Δ portal vein inflammation (liver biopsy tissues [1]; [7]): 1 (4×) and 2
Δ stage (liver biopsy tissues [1]; [7]): 1 (2×) and 0 (2×) and 0.5
GOT and GPT (index of hepatic injury) [2]: statistically significantly inhibits GOT and GPT
glucose-induced expression of ATP-citrate lyase in the liver (ATP-citrate lyase): inhibits glucose-induced expression of ATP-citrate lyase
CT score liver/spleen ratio (fatty liver; after nateglinide administration, per patient, Case 1-5): 1 and 0.9 and 0.95 and 0.8 and 1.05
improvement effect on fatty liver (fatty liver; cases whose diabetic indexes were not improved): an improvement effect on fatty liver was low
Δ CT score liver/spleen ratio (fatty liver; [7]): −0.09 and −0.335 and −0.06 and −0.2 and −0.25
fatty liver, hepatic inflammation, hepatic degeneration, hepatic fibrosis by liver biopsies before and after administration (liver biopsy tissues [3]): the fatty liver diminished, and hepatic inflammation, hepatic degeneration or hepatic fibrosis was improved
BG 2 hrs. (blood glucose 2 hours after the glucose tolerance test) [4, 8]: 199 mg/dL and 105 mg/dL and 238 mg/dL and 337 mg/dL and 118 mg/dL
fasting blood glucose [4, 8]: 106 mg/dL and 119 mg/dL and 115 mg/dL and 163 mg/dL and 100 mg/dL
HbA1c ([4]; after nateglinide 90 mg orally three times per day before each meal (12th or 16th week)): 5.5% and 5.6% and 6.2% and 7.1% and 5%
Δ BG 2 hrs. (blood glucose 2 hours after the glucose tolerance test) [4, 9]: 17 mg/dL and 89 mg/dL and 30 mg/dL and 88 mg/dL and 48 mg/dL
Δ HbA1c [4, 9]: 0.1% (2×) and −0.1% and 0.5% and 0.8%
Δ fasting blood glucose [4, 9]: 20 mg/dL and -6 mg/dL and -5 mg/dL and 7 mg/dL and 39 mg/dL
